Assay results: patent publication US12337033B2, “Encapsulated glycolipid antigens for treatment of neoplastic diseases” (EnGeneIC Molecular Delivery Pty Ltd, priority 2019, dated 2025)

Experiments:
[1] = test system: many different tumor cell lines; assay: Cytotoxicity assays against tumor cell lines; assay type: cell-based
JAWSII cells = assay: αGC surface presentation through CD1d on JAWSII cells (anti-alpha GalCer:mCD1d staining, flow cytometry); assay type: cell-based, mouse; conditions: 8h-48h post-treatment, compared to minicells alone and untreated, free αGC 1000 ng/ml
Method: Cells used: Mouse immature […] JAWSII (ATCC® CRL-11904™).
Preparation Perfecta3D 96-Well Hanging Drop Plate: The upper and lower side tray reservoirs of the 3D hanging drop plates were filled with melted 1% agarose using a P1000 pipette (1 g agarose dissolve in 100 ml of water, dissolved in microwave and allowed to cool to ˜50° C.). The plates were allowed to dry and settle at room temperature for at least 30 min. The outside wells of the hanging drop plate were then filled with 50 μl of sterile cell culture media (without cells)/well.
Treatment of JAWSII spheroids with EDVαGC: JAWSII cells were treated with 1000 ng/ml aGC (positive control); empty minicells and minicellsαGC compared to untreated cells and collected at 8h, 16h, 24h and 48h post-treatment (FIGS. 8A-8D).
Dissociation of JAWSII cells into single-cell suspensions: JAWSII cells were grown as semi-suspension cultures in T25 or T75 flasks. The culture media was carefully collected into a sterile 50 ml tube by pipetting using a pipette-aid and the culture surface of the flask was washed 2× with 5 ml of sterile PBS, and collected in the same sterile 50 ml tube after each wash. […] To determine the cell number, 10 μl of the cell suspension was mixed with 10 μl of trypan blue solution and analyzed using an EVE automated cell counter. […]

Row | SMILES | drug resistance in tumor cell lines ([1]; a number of different tumor cell lines) | potency compared with a range of conventional chemotherapeutics ([1]; cytotoxicity assays, many different tumor cell lines) | staining with anti-GalCer:mCD1d (α-GC presentation on the cell surface by CD1d) (JAWSII cells)
1 | COc1cccc2c1C(=O)c1c(O)c3c(c(O)c1C2=O)C[C@@](O)(C(=O)CO)C[C@@H]3OC1CC2C(OC3C(OC)OCCN23)C(C)O1 (stereo partly drawn) [PNU159682, 3′-deamino-3″,4′-anhydro-[2″(S)-methoxy-3″(R)-oxy-4″-morpholinyl] doxorubicin] | appears to overcome drug resistance | much more potent | –
2 | CCCCCCCCCCCCCCCCCCCCCCCCCC(=O)N[C@@H](CO[C@H]1O[C@H](CO)[C@H](O)[C@H](O)[C@H]1O)[C@H](O)[C@H](O)CCCCCCCCCCCCCC [free α-GC, α-galactosylceramide] | – | – | clear shift
